Results from paper PMC4872749, “EM23, a natural sesquiterpene lactone, targets thioredoxin reductase to activate JNK and cell death pathways in human cervical cancer cells” (Oncotarget, 2016).

Molecular target: T1, thioredoxin reductase (TrxR) (Sus scrofa, UniProt Q9MYY8)
T1 construct: gene TXNRD1; TrxR purified from porcine brains
T1 sequence (Q9MYY8 1-499): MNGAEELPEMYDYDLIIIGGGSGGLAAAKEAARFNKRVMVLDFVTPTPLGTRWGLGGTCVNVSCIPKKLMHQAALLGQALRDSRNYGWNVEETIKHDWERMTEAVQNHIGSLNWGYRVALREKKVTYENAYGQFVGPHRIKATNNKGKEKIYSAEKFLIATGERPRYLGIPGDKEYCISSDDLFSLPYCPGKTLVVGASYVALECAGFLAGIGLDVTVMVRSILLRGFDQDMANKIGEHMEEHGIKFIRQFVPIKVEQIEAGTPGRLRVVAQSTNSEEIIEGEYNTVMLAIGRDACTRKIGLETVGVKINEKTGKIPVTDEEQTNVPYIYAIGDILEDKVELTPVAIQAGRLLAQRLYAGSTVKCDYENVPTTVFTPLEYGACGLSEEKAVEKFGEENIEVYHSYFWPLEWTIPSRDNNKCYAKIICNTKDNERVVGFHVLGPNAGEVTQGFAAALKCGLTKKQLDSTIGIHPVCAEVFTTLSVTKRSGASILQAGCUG
Assay: DTNB reduction assay with purified NADPH-reduced TrxR; supported by BIAM labeling and TOF LC/MS of C-terminal tetrapeptide adduct
Assay type: biochemical

IC50: 7.8 µM
Compound: C=C(C)C(=O)OC1CC(C)=CC2(OC)C=C(C)C(O2)C2OC(=O)C(=C)C12 (stereo not shown) [EM23]
